In patent US8937058B2, “17-hydroxy-19-nor-21-carboxylic acid-steroid γ-lactone derivative, use thereof, and medicament containing the derivative” (priority 2007, dated 2015):
Read-outs that look alike come from different tables or passages of the source.

Columns and labels:
[1] = target: T1, mineralocorticoid receptor (Homo sapiens (Human), UniProt P08235); experiment: Mineralocorticoid receptor binding test (displacement of 3H-aldosterone, cytosol from Hi5 insect cells); details: reference substance 3H-aldosterone
T1 sequence (P08235 whole entry): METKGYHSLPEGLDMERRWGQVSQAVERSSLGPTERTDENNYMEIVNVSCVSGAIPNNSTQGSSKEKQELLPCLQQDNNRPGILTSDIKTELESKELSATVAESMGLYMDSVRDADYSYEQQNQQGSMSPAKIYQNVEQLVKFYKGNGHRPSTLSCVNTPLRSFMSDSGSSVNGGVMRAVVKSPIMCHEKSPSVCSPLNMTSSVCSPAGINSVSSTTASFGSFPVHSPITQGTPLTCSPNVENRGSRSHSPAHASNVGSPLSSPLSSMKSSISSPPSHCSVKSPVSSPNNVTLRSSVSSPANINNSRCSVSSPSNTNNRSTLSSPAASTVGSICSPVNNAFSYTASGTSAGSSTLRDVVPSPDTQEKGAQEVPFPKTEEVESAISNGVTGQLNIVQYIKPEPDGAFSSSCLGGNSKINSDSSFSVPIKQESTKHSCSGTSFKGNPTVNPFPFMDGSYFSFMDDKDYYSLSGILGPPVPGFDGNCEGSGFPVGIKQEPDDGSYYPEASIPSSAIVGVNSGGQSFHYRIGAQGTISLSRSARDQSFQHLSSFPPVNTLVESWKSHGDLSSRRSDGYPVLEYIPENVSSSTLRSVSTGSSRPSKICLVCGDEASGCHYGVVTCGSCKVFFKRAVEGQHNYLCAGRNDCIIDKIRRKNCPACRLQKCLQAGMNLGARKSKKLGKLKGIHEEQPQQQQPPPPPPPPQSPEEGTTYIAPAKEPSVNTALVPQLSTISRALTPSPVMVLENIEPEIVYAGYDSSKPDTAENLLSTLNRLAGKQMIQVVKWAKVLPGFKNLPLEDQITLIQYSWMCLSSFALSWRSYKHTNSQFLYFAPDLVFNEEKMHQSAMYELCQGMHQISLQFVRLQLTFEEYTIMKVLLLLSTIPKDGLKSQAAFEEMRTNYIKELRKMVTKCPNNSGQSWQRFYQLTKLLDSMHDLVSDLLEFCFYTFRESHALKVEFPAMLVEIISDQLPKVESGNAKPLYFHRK
Experimental: 2. Mineralocorticoid Receptor Binding Test:
The test was carried out as in 1., with the following modifications: cytosol from mineralocorticoid receptor-expressing insect cells (Hi5) was used, and the reference substance was ^3H-aldosterone.

androgen receptor [2] = target: T2, androgen receptor (Homo sapiens (Human), UniProt P10275); details: for IC50: read-out: Androgen receptor IC50, receptor binding, 3H-testosterone displacement; for Androgen receptor Competition factor: reference substance 3H-testosterone
T2 sequence (P10275 whole entry, species assumed): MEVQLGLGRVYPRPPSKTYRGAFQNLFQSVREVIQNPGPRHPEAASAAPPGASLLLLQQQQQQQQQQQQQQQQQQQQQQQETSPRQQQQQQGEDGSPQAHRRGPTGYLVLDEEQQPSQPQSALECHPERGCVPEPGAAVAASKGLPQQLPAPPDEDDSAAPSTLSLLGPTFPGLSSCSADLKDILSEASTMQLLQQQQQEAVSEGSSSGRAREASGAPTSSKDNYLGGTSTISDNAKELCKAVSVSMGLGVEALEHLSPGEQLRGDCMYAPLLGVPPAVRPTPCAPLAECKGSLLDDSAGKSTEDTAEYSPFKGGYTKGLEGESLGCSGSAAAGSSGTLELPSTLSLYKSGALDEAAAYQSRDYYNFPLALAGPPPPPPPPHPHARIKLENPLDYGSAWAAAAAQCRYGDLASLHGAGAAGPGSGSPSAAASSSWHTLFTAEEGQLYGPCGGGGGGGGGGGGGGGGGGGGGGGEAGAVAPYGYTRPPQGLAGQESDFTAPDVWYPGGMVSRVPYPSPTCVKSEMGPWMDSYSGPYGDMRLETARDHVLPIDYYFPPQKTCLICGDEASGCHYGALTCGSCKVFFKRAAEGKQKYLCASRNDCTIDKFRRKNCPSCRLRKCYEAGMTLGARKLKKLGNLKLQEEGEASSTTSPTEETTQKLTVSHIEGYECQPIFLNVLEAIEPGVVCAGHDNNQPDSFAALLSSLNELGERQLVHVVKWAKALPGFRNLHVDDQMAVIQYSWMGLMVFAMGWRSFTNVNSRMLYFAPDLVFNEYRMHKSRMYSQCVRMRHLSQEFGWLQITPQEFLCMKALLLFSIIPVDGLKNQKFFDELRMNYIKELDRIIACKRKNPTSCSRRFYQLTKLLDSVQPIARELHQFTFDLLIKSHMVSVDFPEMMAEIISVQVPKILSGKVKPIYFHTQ
Experimental: 3. Androgen Receptor Binding Test:
The test was carried out as in 1., with the following modifications: cytosol from androgen receptor-expressing insect cells (Hi5) was used, and the reference substance was ^3H-testosterone.

[3] = target: fusion protein from the PR-ligand-binding domain and a Gal4-transactivation domain (Homo sapiens (Human), UniProt P06401); experiment: cell-based; details: for Progesterone receptor Agonism EC50 / Progesterone receptor Agonism efficacy: in-vitro transactivation, CHO K1 reporter cells; for Progesterone receptor Agonism EC50: 16 hours
Chain of fusion protein from the PR-ligand-binding domain and a Gal4-transactivation domain (P06401 679-913): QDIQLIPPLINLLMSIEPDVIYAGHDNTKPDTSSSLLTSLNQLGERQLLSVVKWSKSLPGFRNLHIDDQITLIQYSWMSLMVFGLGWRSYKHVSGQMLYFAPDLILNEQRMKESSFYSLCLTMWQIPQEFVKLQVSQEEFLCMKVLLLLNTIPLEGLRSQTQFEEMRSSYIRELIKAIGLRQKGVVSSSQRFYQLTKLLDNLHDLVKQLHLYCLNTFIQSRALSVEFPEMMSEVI
Experimental: 4. Determination of Progestational Action by Means of Transactivation Tests:
The test compounds were added eight hours later, and the cells were incubated with the compounds for 16 hours. The tests were carried out in triplicate. At the end of incubation the medium containing the effector was removed and replaced with lysis buffer. After luciferase assay substrate (Promega, #E1501) had been added, the 96-well plates were then put in a microplate luminometer (Pherastar, BMG Labtech), and the luminescence was measured. The IC50 values were evaluated using software for calculating dose-effect relations.

[4] = target: T1, mineralocorticoid receptor; experiment: Antimineralocorticoid action by transactivation test (MDCK luciferase reporter cells); format: cell-based; details: in-vitro transactivation, 1 nM aldosterone; for IC50: read-out: Mineralocorticoid receptor Antagonism IC50
Experimental: 5. Determination of Antimineralocorticoid Action by Means of Transactivation Tests:
The antimineralocorticoid activity of the test substances was determined as for the transactivation tests described above.
The following modifications were undertaken: In this case reporter cell lines were used (MDCK cells) that express the human mineralocorticoid receptor, and transiently contain a reporter construct that contains luciferase under the control of a steroid hormone-responsive promoter.
For determination of antimineralocorticoid efficacy, 1 nM aldosterone (SIGMA A-6628, Lot 22H4033) was added to the cells, to achieve almost maximum stimulation of the reporter gene. Inhibition of the effect indicated a mineralocorticoid-antagonistic action of the substances (Table 2; for comparison, corresponding values for drospirenone (A)).

androgen receptor [5] = target: T2, androgen receptor; experiment: cell-based; details: for Androgen receptor Agonism efficacy / Androgen receptor Antagonism efficacy: in-vitro transactivation, PC3 cells; for Androgen receptor Antagonism efficacy: 0.05 nM R1881
Experimental: 6. Determination of Androgenic/Antiandrogenic Action by Means of Transactivation Tests:
The androgenic/antiandrogenic action of the test substances was determined as for the transactivation tests described above.
The following modifications were made: In this case reporter cell lines were used (PC3 cells) that express the androgen receptor, and a reporter construct that contains luciferase under the control of a steroid hormone-responsive promoter.
For determination of the antiandrogenic efficacy, 0.05 nM R1881 was added to the cells, in order to achieve almost maximum stimulation of the reporter gene.

progesterone receptor = progesterone receptor (Homo sapiens (Human), UniProt P06401); details: for Progesterone receptor (PR) Competition factor: CF of 1 = affinity of progesterone, CF >1 lower affinity; for CF PR/CF MR: ratio of the competition factors CF(PR) and CF(MR); for IC50: read-out: Progesterone receptor (PR) IC50, receptor binding, 3H-progesterone displacement
Chain of progesterone receptor (P06401 whole entry, species assumed): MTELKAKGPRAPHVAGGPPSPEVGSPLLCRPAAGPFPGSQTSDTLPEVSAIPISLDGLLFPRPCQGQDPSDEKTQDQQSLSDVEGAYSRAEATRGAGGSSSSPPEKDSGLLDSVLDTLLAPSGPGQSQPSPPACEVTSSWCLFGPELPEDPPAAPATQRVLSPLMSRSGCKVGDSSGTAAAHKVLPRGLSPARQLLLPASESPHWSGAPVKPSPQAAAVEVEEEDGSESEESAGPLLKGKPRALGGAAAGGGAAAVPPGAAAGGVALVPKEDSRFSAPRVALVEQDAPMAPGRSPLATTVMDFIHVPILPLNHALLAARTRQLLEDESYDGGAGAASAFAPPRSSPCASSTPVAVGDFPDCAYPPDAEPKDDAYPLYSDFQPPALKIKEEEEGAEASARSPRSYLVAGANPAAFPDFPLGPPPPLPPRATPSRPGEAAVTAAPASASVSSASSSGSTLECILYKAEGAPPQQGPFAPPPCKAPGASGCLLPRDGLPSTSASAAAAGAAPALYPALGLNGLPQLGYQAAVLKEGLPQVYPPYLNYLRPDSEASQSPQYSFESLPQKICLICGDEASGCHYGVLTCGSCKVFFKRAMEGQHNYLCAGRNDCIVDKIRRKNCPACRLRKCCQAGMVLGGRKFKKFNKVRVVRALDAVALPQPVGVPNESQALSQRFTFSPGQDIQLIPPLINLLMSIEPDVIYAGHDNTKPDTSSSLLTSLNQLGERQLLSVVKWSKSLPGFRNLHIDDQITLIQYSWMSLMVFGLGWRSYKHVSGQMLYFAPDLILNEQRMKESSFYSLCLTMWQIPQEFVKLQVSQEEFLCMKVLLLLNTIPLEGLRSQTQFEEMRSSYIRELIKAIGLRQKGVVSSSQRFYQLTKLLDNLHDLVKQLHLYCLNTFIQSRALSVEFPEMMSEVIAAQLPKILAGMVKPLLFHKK
Experimental: Progesterone Receptor Binding Test:
Using cytosol from progesterone receptor-expressing insect cells (Hi5), competitive binding to the progesterone receptor was determined from the ability to displace ^3H-progesterone as reference substance from the receptor.

Compound	Mineralocorticoid receptor (MR) Competition factor [1]	IC50 (androgen receptor [2]) [nM]	Androgen receptor Competition factor (androgen receptor [2])	Progesterone receptor Agonism EC50 [3]	Mineralocorticoid receptor Antagonism efficacy [4] [%]	IC50 [4] [nM]	EC50 (androgen receptor [5]) [nM]	IC50 (androgen receptor [5]) [nM]	Androgen receptor Agonism efficacy (androgen receptor [5]) [%]	Androgen receptor Antagonism efficacy (androgen receptor [5]) [%]	Progesterone receptor (PR) Competition factor (progesterone receptor)	CF PR/CF MR (progesterone receptor)	IC50 (progesterone receptor) [nM]	EC50 [3] [nM]	Progesterone receptor Agonism efficacy [3] [%]	Mineralocorticoid receptor Antagonism IC50 [4]
CC[C@@H]1CC2=CC(=O)CC[C@@H]2[C@H]2CC[C@@]3(CC)[C@@H](CC[C@@]34C=CC(=O)O4)[C@H]12 (stereo in doubt) [Example 9A, 17β-Hydroxy-7α-ethyl-18-methyl-19-nor-17α-pregna-4,20(Z)-dien-3-one-21-carboxylic acid γ-lactone]	1.6	76	2.3	inactive	97.6	130	5.1	1000	63.33	5	25.12	15.70	670			
C=C[C@@H]1CC2=CC(=O)CC[C@@H]2[C@H]2CC[C@@]3(CC)[C@@H](CC[C@@]34C=CC(=O)O4)[C@@H]21 (stereo in doubt) [Example 10A, 17β-Hydroxy-7α-vinyl-18-methyl-19-nor-17α-pregna-4,20(Z)-dien-3-one-21-carboxylic acid γ-lactone]	5.1	50	1.8		80.0	940	1.3	1000	74.78	5	18.90	3.71	450	140	52.4	
CC[C@]12CC[C@H]3[C@@H]([C@H](C4CC4)CC4=CC(=O)CC[C@@H]43)[C@@H]1CC[C@@]21C=CC(=O)O1 (stereo in doubt) [Example 11A, 17β-Hydroxy-7α-cyclopropyl-18-methyl-19-nor-17α-pregna-4,20(Z)-dien-3-one-21-carboxylic acid γ-lactone]	2.4	94	3.4		88.8	230	10	16	41.38	34.45	21.03	8.76	500	120	47.7	
C[C@]12CC[C@H]3[C@@H]([C@H](C4CC4)CC4=CC(=O)CC[C@@H]43)[C@@H]1CC[C@@]21C=CC(=O)O1 (stereo in doubt) [Example 12A, 17β-Hydroxy-7α-cyclopropyl-19-nor-17α-pregna-4,20(Z)-dien-3-one-21-carboxylic acid γ-lactone]	12.1	300	9.6	inactive	116.9	110	67	48	21.13	69.75	109.04	9.01	2600			
CC[C@]12CC[C@H]3[C@@H](CCC4=C(Cl)C(=O)CC[C@@H]43)[C@@H]1CC[C@@]21C=CC(=O)O1 [Example 13, 4-Chloro-17β-hydroxy-18-methyl-19-nor-17α-pregna-4,20(Z)-dien-3-one-21-carboxylic acid γ-lactone]	47.0	170	8.3				57	12	33.71	44.18	28.06	0.60	750	1000	25.3	inactive
C[C@]12CC[C@H]3[C@@H](CCC4=C(Cl)C(=O)CC[C@@H]43)[C@@H]1CC[C@@]21C=CC(=O)O1 [Example 14, 4-Chloro-17β-hydroxy-19-nor-17α-pregna-4,20(Z)-dien-3-one-21-carboxylic acid γ-lactone]	39.0	140	7.5	inactive	21.6	700	100	70.5	22.74	63.26	53.06	1.36	1200			
